# From patent US11987648B2, “Cyclohexapeptides as selective somatostatin SST5 receptor agonists” (Heptares Therapeutics Limited, priority 2018, dated 2024)
# Where two headings read alike, the source gives them in different places. *1 amine or outer side, *2 acyl side, *3 side chain or, on linkers, in order; H or OH if unused. Where a SMILES comes first, the peptide text is derived from it. Side-chain parts run from the residue outwards. [ ]: non-standard residue; d: D form. The star is where a group is joined. Ala(piperidin-4-yl) = O=C([C@H](CC1CCN([*:3])CC1)N[*:1])[*:2]; dTrp(4-OMe) = COc1cccc2[nH]cc(C[C@@H](N)C(=O)O)c12; Ala(piperazin-1-yl) = N[C@@H](CN1CCNCC1)C(=O)O; Tyr(Ph) = N[C@@H](Cc1ccc(Oc2ccccc2)cc1)C(=O)O; X7 = NCCOC(=O)N1CCN([*:1])[C@H](C(=O)[*:2])C1; Morpholine(3S-CO) = O=C(O)[C@@H]1COCCN1; Pro(4,4-F2) = O=C(O)[C@@H]1CC(F)(F)CN1; Ethylenediamine = C(CN[*:2])N[*:1]; d(hPhe) = N[C@H](CCc1ccccc1)C(=O)O; Hyp = O=C(O)[C@@H]1C[C@@H](O)CN1; Pip(4-aza) = O=C(O)[C@@H]1CNCCN1; hPhe = N[C@@H](CCc1ccccc1)C(=O)O; 3Pal = N[C@@H](Cc1cccnc1)C(=O)O; Cyclohexylmethyl = C1CCC(C*)CC1; Tic = O=C(O)[C@@H]1Cc2ccccc2CN1; Phg = N[C@H](C(=O)O)c1ccccc1; Pip = O=C(O)[C@@H]1CCCCN1; X3 = CN[C@H]1CCN(*)C1; CO = O=C([*:1])[*:2]; Bn = c1ccc(C*)cc1
# Key:
# SST5 = SST5 (Homo sapiens, UniProt P35346); test: Hit Hunter cAMP XS+ assay, SST5 activation via Gi (reduction of forskolin-stimulated cAMP); format: cell-based; settings: for Emax: read-out: SST5 (EMax); for SST5/2 Selectivity: selectivity for SST5 over SST2
# Sequence of SST5 (P35346 whole entry, the tested form may be a part): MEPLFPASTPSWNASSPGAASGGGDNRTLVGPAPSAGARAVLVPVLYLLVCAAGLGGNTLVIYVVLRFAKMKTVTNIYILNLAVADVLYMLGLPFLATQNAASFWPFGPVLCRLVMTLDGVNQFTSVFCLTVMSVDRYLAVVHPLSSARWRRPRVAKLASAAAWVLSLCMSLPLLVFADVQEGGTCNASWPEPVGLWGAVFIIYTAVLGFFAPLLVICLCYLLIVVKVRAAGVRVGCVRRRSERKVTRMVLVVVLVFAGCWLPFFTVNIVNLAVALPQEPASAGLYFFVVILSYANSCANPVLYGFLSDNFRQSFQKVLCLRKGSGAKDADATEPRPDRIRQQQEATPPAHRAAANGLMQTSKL
# Outline: (§1)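 Cells (10,000/well) incubated 30 min at 37 °C with compound under EC80 forskolin ([…] for SST2, 15 μM for SST5). cAMP reduction was detected by enzyme-fragment complementation chemiluminescence after 60 min and 180 min room-temperature reagent steps. Potency and efficacy were both measured.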
# SST2 = SST2 (Homo sapiens, UniProt P30874); test: Hit Hunter cAMP XS+ assay, SST2 activation via Gi (reduction of forskolin-stimulated cAMP); format: cell-based; settings: for Emax: read-out: SST2 (EMax)
# Sequence of SST2 (P30874 whole entry): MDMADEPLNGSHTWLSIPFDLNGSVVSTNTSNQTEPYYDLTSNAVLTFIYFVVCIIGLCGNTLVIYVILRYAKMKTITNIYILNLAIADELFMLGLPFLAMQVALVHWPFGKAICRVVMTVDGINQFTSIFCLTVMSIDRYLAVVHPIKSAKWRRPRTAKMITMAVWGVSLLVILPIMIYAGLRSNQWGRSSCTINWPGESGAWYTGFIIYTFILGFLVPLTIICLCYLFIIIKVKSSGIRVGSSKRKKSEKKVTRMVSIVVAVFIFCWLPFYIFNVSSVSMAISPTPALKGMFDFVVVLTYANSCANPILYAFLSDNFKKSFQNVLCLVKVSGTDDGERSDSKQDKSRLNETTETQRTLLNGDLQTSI
# Outline: as §1
# [1] = Phase I trial, pancreatic cancer, combination treatment with gemcitabine; cited from earlier work
# [2] = Phase II trial, hepatocellular carcinoma; cited from earlier work
# [3] = reduction of forskolin-stimulated cAMP, 4-parameter logistic fit, read-out: SST5 pEC50 (converted)
# [4] = reduction of forskolin-stimulated cAMP, 4-parameter logistic fit, read-out: SST2 pEC50 (converted)
# [5] = efficacy normalised to somatostatin 28 (basal 0%, 100% = signal with 50 nM somatostatin 28)
Compound,Emax (SST5) [%],EC50 (SST5; [3]) [nM],SST5/2 Selectivity (SST5),Emax (SST2) [%],EC50 (SST2; [4]) [nM],EC50 (SST5) [nM],EC50 (SST2) [nM],disease control rate [1] [%],patients with limitation of disease progression [2] [%],SST5 (EMax) (SST5; [5]) [%],SST2 (EMax) (SST2; [5]) [%]
COc1cccc2[nH]cc(C[C@H]3NC(=O)[C@H](CCc4ccccc4)NC(=O)[C@@H]4COCCN4C(=O)[C@@H]4Cc5ccccc5CN4C(=O)[C@H](Cc4ccc(OCc5ccccc5)cc4)NC(=O)[C@H](CN4CCNCC4)NC3=O)c12 [Example 68] (cyclo([Tic][Morpholine(3S-CO)][hPhe][dTrp(4-OMe)][Ala(piperazin-1-yl)]Y(Bn))),98.8,0.316,791.6,99.1,251,–,–,–,–,–,–
NCCOC(=O)N1CCN2C(=O)[C@@H]3Cc4ccccc4CN3C(=O)[C@H](Cc3ccc(OCc4ccccc4)cc3)NC(=O)[C@H](CN3CCNCC3)NC(=O)[C@@H](Cc3c[nH]c4ccccc34)NC(=O)[C@H](CCc3ccccc3)NC(=O)[C@@H]2C1 [Example 72] (cyclo([Tic][X7][hPhe][dW][Ala(piperazin-1-yl)]Y(Bn))),101,6.31,1621.3,14,> 10000,–,–,–,–,–,–
O=C1N[C@@H](Cc2ccc(OCc3ccccc3)cc2)C(=O)N2Cc3ccccc3C[C@H]2C(=O)N2CCNC[C@H]2C(=O)N[C@@H](CCc2ccccc2)C(=O)N[C@H](Cc2c[nH]c3ccccc23)C(=O)N[C@H]1CC1CCNCC1 [Example 73] (cyclo([Tic][Pip(4-aza)][hPhe][dW][Ala(piperidin-4-yl)]Y(Bn))),94.9,0.631,566.7,99.2,398,–,–,–,–,–,–
CN[C@H]1CCN(C(=O)O[C@@H]2C[C@H]3C(=O)N[C@@H](CCc4ccccc4)C(=O)N[C@H](Cc4c[nH]c5ccccc45)C(=O)N[C@@H](CC4CCNCC4)C(=O)N[C@@H](Cc4ccc(OCc5ccccc5)cc4)C(=O)N4Cc5ccccc5C[C@H]4C(=O)N3C2)C1 [Example 78] (cyclo([Hyp]([CO-X3])[hPhe][dW][Ala(piperidin-4-yl)]Y(Bn)[Tic])),106,1.26,2726.7,76.2,3160,–,–,–,–,–,–
"NCCCC[C@@H]1NC(=O)[C@@H](Cc2c[nH]c3ccccc23)NC(=O)[C@H](c2ccccc2)NC(=O)[C@@H]2C[C@@H](OC(=O)NCCN)CN2C(=O)[C@H](Cc2ccccc2)NC(=O)[C@H](Cc2ccc(OCc3ccccc3)cc2)NC1=O [pasireotide, reference compound] (cyclo([Hyp]([CO-Ethylenediamine])[Phg][dW]KY(Bn)F))",102,–,3.8,100,–,0.251,1,68,45,–,–
somatostatin 28 [reference compound],–,–,4.6,–,–,–,–,–,–,101.0,100.4

# Further lines, with some results ahead:
Emax (SST5) [%],EC50 (SST5; [3]) [nM],SST5/2 Selectivity (SST5),Emax (SST2) [%],EC50 (SST2; [4]) [nM],Compound,EC50 (SST5) [nM],EC50 (SST2) [nM],disease control rate [1] [%],patients with limitation of disease progression [2] [%],SST5 (EMax) (SST5; [5]) [%],SST2 (EMax) (SST2; [5]) [%]
104,15.8,25.7,98.3,398,NCCNC(=O)O[C@@H]1C[C@H]2C(=O)N[C@@H](CCc3ccccc3)C(=O)N[C@H](Cc3c[nH]c4ccccc34)C(=O)N[C@@H](CC3CCNCC3)C(=O)N[C@@H](Cc3ccc(Oc4ccccc4)cc3)C(=O)N[C@@H](Cc3cccnc3)C(=O)N2C1 [Example 67] (cyclo([3Pal][Hyp]([CO-Ethylenediamine])[hPhe][dW][Ala(piperidin-4-yl)][Tyr(Ph)])),–,–,–,–,–,–
103,79.4,124.3,69,> 10000,NCCNC(=O)O[C@@H]1C[C@H]2C(=O)N[C@@H](CCc3ccccc3)C(=O)N[C@H](Cc3c[nH]c4ccccc34)C(=O)N[C@@H](CN3CCNCC3)C(=O)N[C@@H](Cc3ccc(OCc4ccccc4)cc3)C(=O)N3CCCC[C@H]3C(=O)N2C1 [Example 69] (cyclo([Hyp]([CO-Ethylenediamine])[hPhe][dW][Ala(piperazin-1-yl)]Y(Bn)[Pip])),–,–,–,–,–,–
102,5.01,1815.8,77.9,> 10000,"NCCNC(=O)O[C@@H]1C[C@H]2C(=O)N[C@@H](CCc3ccccc3)C(=O)N[C@H](Cc3c[nH]c4ccccc34)C(=O)N[C@@H](CN3CCNCC3)C(=O)N[C@@H](Cc3ccc(OCc4ccccc4)cc3)C(=O)N3CC(F)(F)C[C@H]3C(=O)N2C1 [Example 70] (cyclo([Hyp]([CO-Ethylenediamine])[hPhe][dW][Ala(piperazin-1-yl)]Y(Bn)[Pro(4,4-F2)]))",–,–,–,–,–,–
103,63.1,171.4,52.8,> 10000,NCCNC(=O)O[C@@H]1C[C@H]2C(=O)N[C@H](CCc3ccccc3)C(=O)N[C@H](Cc3c[nH]c4ccccc34)C(=O)N[C@@H](CN3CCNCC3)C(=O)N[C@@H](Cc3ccc(OCC4CCCCC4)cc3)C(=O)N[C@@H](Cc3cccnc3)C(=O)N2C1 [Example 71] (cyclo([3Pal][Hyp]([CO-Ethylenediamine])[d(hPhe)][dW][Ala(piperazin-1-yl)]Y(Cyclohexylmethyl))),–,–,–,–,–,–
